Results: PMC6296572 (Journal of Genetic Engineering & Biotechnology, 2017)

System: laccase from Trichoderma harzianum strain HZN10 (free, purified)
Experiment: ABTS oxidation, absorbance at […] nm
Format: biochemical
Details: free enzyme; ABTS 0.2-2.4 mM; standard assay 0.1 M sodium phosphate pH 6, 25 °C

With `CCn1c(=NN=c2sc3cc(S(=O)(=O)O)ccc3n2CC)sc2cc(S(=O)(=O)O)ccc21` [ABTS, 2,2′-azino-bis(3-ethylbenzothiazoline-6-sulfonic acid)] the Km was 500 µM.
